These results are taken from patent US20240382474A1, “ENPP1 MODULATORS AND USES THEREOF” (Vir Biotechnology, Inc., priority 2021, published 2024).

pIC50: −log10 of the molar value. Where only a bound is given, the exact number is not on record here.

In this test the target is T1, human ENPP1 enzymatic domain (Homo sapiens, UniProt P22413).
T1 construct: recombinant protein containing the human ENPP1 enzymatic domain; purchased Viva Biotech
T1 sequence (P22413 191-591 limits assumed): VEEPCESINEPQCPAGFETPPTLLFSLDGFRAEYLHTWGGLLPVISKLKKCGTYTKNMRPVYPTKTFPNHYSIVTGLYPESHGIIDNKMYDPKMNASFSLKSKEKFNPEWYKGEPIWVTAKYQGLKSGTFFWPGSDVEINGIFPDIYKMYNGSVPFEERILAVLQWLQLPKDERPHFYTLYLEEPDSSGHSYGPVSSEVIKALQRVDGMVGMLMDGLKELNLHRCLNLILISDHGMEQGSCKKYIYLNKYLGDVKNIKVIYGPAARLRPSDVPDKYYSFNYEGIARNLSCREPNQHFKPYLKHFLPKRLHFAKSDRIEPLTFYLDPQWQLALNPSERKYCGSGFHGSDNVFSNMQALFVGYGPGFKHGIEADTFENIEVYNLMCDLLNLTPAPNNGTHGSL
As to the kind of experiment: ENPP1 Enzymatic Inhibition Assay (2′3′-cGAMP substrate, AMP-Glo luminescence). The format is biochemical. The note with it: 1 nM ENPP1, 20 uM 2′3′-cGAMP, 30 minutes at 37° C. As for the experimental part:
The inhibition of ENPP1's phosphodiesterase activity were tested in a purified enzymatic assay using 2′3′-cyclic GAMP as a substrate which allowed for the release of cleaved AMP to be monitored using a luminescent assay.
Putative inhibitors were diluted in assay buffer (50 mM Tris pH 8.0, 250 mM NaCl, 0.5 mM CaCl2), 1 uM ZnCl2, 1% DMSO) and pre-incubated for 15 minutes at 37° C. with recombinant protein containing the human ENPP1 enzymatic domain (Viva Biotech). The enzymatic reaction was initiated upon addition of the 2′3′-cGAMP substrate. The final reaction concentrations were 1 nM ENPP1 and 20 uM 2′3′-cGAMP substrate in a 25 uL volume. Inhibitor concentrations ranged from 10 uM to 0.056 nM. The reaction was incubated for 30 minutes at 37° C.
After reacting for 30 minutes, the amount of AMP generated from the cleavage of 2′3′-cGAMP was determined using the Promega AMP-Glo method according to the manufacturer's protocol. First, AMP-Glo reagent 1 was added and incubated with the reaction mix for 1 hour at room temperature. Second, AMP Detection solution was added and the mixture was incubated for an additional hour. The luminescence of the mixture was read on a Perkin Elmer Ensight plate reader.
The maximum and minimum levels of ENPP1 activity were established using no inhibitor and no enzyme controls, respectively. The activity observed using ENPP1 inhibitors was quantified as the percent of activity relative to these controls. IC50 values were calculated using CDD Vault by fitting a sigmoidal variable slope nonlinear regression model to the data.
For the molecule `CN[S@](=N)(=O)c1ccc(Oc2ccnc3cc(OC)ccc23)cc1` [Compound 2, (S)-4-((7-methoxyquinolin-4-yl)oxy)-N-methylbenzenesulfonimidamide], the pIC50 was more than 8.00.
In the case of `COc1ccc2c(Oc3ccc([S@](=N)(=O)NCCO)cc3)ccnc2c1` [Compound 3, (R)-N-(2-hydroxyethyl)-4-((7-methoxyquinolin-4-yl)oxy)benzenesulfonimidamide] it was 7.00 to 8.00; in that of `COc1ccc2c(Oc3ccc([S@@](=N)(=O)NCCO)cc3)ccnc2c1` [Compound 4, (S)-N-(2-hydroxyethyl)-4-((7-methoxyquinolin-4-yl)oxy)benzenesulfonimidamide], more than 8.00.
In the case of `COc1ccc2c(Oc3ccc([S@](=N)(=O)N[C@@H](C)CO)cc3)ccnc2c1` [Compound 5, (R)-N-((S)-1-hydroxypropan-2-yl)-4-((7-methoxyquinolin-4-yl)oxy)benzenesulfonimidamide] it was 7.00 to 8.00; in that of `COc1ccc2c(Oc3ccc([S@@](=N)(=O)N[C@@H](C)CO)cc3)ccnc2c1` [Compound 6, (S)-N-((S)-1-hydroxypropan-2-yl)-4-((7-methoxyquinolin-4-yl)oxy)benzenesulfonimidamide], more than 8.00; in that of `COc1ccc2c(Oc3ccc([S@](=N)(=O)NC[C@H](C)O)cc3)ccnc2c1` [Compound 7, (R)-N-((S)-2-hydroxypropyl)-4-((7-methoxyquinolin-4-yl)oxy)benzenesulfonimidamide], 7.00 to 8.00.
Under `COc1ccc2c(Oc3ccc([S@@](=N)(=O)NC[C@H](C)O)cc3)ccnc2c1` [Compound 8, (S)-N-((S)-2-hydroxypropyl)-4-((7-methoxyquinolin-4-yl)oxy)benzenesulfonimidamide] stands more than 8.00; under `COc1ccc2c(Oc3ccc([S@](=N)(=O)NCC(C)(C)O)cc3)ccnc2c1` [Compound 9, (R)-N-(2-hydroxy-2-methylpropyl)-4-((7-methoxyquinolin-4-yl)oxy)benzenesulfonimidamide], 7.00 to 8.00; under `COc1ccc2c(Oc3ccc([S@@](=N)(=O)NCC(C)(C)O)cc3)ccnc2c1` [Compound 10, (S)-N-(2-hydroxy-2-methylpropyl)-4-((7-methoxyquinolin-4-yl)oxy)benzenesulfonimidamide], more than 8.00.
Turning to `COc1ccc2c(Oc3ccc([S@](=N)(=O)N[C@H](C)CO)cc3)ccnc2c1` [Compound 11, (R)-N-((R)-1-hydroxypropan-2-yl)-4-((7-methoxyquinolin-4-yl)oxy)benzenesulfonimidamide], the pIC50 was 7.00 to 8.00.
As to `COc1ccc2c(Oc3ccc([S@@](=N)(=O)N[C@H](C)CO)cc3)ccnc2c1` [Compound 12, (S)-N-((R)-1-hydroxypropan-2-yl)-4-((7-methoxyquinolin-4-yl)oxy)benzenesulfonimidamide], the negative logarithm of the IC50 (pIC50) is more than 8.00.
In the case of `COc1ccc2c(Oc3ccc([S@](=N)(=O)NCC4CC4)cc3)ccnc2c1` [Compound 13, (R)-N-(cyclopropylmethyl)-4-((7-methoxyquinolin-4-yl)oxy)benzenesulfonimidamide] it was less than 7.00; in that of `COc1ccc2c(Oc3ccc([S@@](=N)(=O)NCC4CC4)cc3)ccnc2c1` [Compound 14, (S)-N-(cyclopropylmethyl)-4-((7-methoxyquinolin-4-yl)oxy)benzenesulfonimidamide], more than 8.00; in that of `CN[S@@](=N)(=O)c1ccc(Nc2ncnc3cc(OC)ccc23)cc1` [Compound 15, (R)-4-((7-methoxyquinazolin-4-yl)amino)-N-methylbenzenesulfonimidamide], 7.00 to 8.00.
In the case of `CN[S@](=N)(=O)c1ccc(Nc2ncnc3cc(OC)ccc23)cc1` [Compound 16, (S)-4-((7-methoxyquinazolin-4-yl)amino)-N-methylbenzenesulfonimidamide] it was more than 8.00; in that of `CN[S@@](=N)(=O)c1ccc(Nc2ccnc3cc(OC)ccc23)cc1` [Compound 17, (R)-4-((7-methoxyquinolin-4-yl)amino)-N-methylbenzenesulfonimidamide], more than 8.00; in that of `CN[S@](=N)(=O)c1ccc(Nc2ccnc3cc(OC)ccc23)cc1` [Compound 18, (S)-4-((7-methoxyquinolin-4-yl)amino)-N-methylbenzenesulfonimidamide], more than 8.00.
Molecule `COc1ccc2c(Nc3ccc([S@](=N)(=O)NCC4CC4)cc3)ccnc2c1` [Compound 19, (R)-N-(cyclopropylmethyl)-4-((7-methoxyquinolin-4-yl)amino)benzenesulfonimidamide] gave a pIC50 of more than 8.00.
In the case of `COc1ccc2c(Nc3ccc([S@@](=N)(=O)NCC4CC4)cc3)ccnc2c1` [Compound 20, (S)-N-(cyclopropylmethyl)-4-((7-methoxyquinolin-4-yl)amino)benzenesulfonimidamide] it was more than 8.00; in that of `COc1ccc2c(Nc3ccc([S@@](=N)(=O)NCC4CC4)cc3)c(C#N)cnc2c1` [Compound 21, (S)-4-((3-cyano-7-methoxyquinolin-4-yl)amino)-N-(cyclopropylmethyl)benzenesulfonimidamide], 7.00 to 8.00.
Under `N=[S@](=O)(NCC1CC1)c1ccc(Nc2ccnc3cc(OC(F)F)ccc23)cc1` [Compound 22, (S)-N-(cyclopropylmethyl)-4-((7-(difluoromethoxy)quinolin-4-yl)amino)benzenesulfonimidamide] stands more than 8.00; under `COc1ccc2c(Oc3ccc([S@](=N)(=O)NC[C@@H](C)O)cc3)ccnc2c1` [Compound 25, (R)-N-((R)-2-hydroxypropyl)-4-((7-methoxyquinolin-4-yl)oxy)benzenesulfonimidamide], more than 8.00.
Under `COc1ccc2c(Oc3ccc([S@](=N)(=O)N[C@H](C)c4ccnn4C)cc3)ccnc2c1` [Compound 27, (R)-4-((7-methoxyquinolin-4-yl)oxy)-N-((R)-1-(1-methyl-1H-pyrazol-5-yl)ethyl)benzenesulfonimidamide] stands 7.00 to 8.00; under `COc1ccc2c(Oc3ccc([S@@](=N)(=O)N[C@H](C)c4ccnn4C)cc3)ccnc2c1` [Compound 28, (S)-4-((7-methoxyquinolin-4-yl)oxy)-N-((R)-1-(1-methyl-1 H-pyrazol-5-yl)ethyl)benzenesulfonimidamide], more than 8.00; under `COc1ccc2c(Oc3ccc([S@](=N)(=O)NC(C)c4ccn(C)n4)cc3)ccnc2c1` (stereo partly drawn) [Compound 29, (R)-4-((7-methoxyquinolin-4-yl)oxy)-N-(1-(1-methyl-1H-pyrazol-3-yl)ethyl)benzenesulfonimidamide], more than 8.00.
On to `COc1ccc2c(Oc3ccc([S@@](=N)(=O)NC(C)c4ccn(C)n4)cc3)ccnc2c1` (stereo partly drawn) [Compound 30, (S)-4-((7-methoxyquinolin-4-yl)oxy)-N-(1-(1-methyl-1H-pyrazol-3-yl)ethyl)benzenesulfonimidamide], for which the pIC50 was more than 8.00.
In the case of `COc1ccc2c(Oc3ccc([S@](=N)(=O)NC[C@@H](O)CO)cc3)ccnc2c1` [Compound 31, (R)-N-((R)-2,3-dihydroxypropyl)-4-((7-methoxyquinolin-4-yl)oxy)benzenesulfonimidamide] it was 7.00 to 8.00; in that of `COc1ccc2c(Oc3ccc([S@@](=N)(=O)NC[C@@H](O)CO)cc3)ccnc2c1` [Compound 32, (S)-N-((R)-2,3-dihydroxypropyl)-4-((7-methoxyquinolin-4-yl)oxy)benzenesulfonimidamide], more than 8.00.
Take `COc1ccc2c(Oc3ccc([S@](=N)(=O)NC[C@H](O)CO)cc3)ccnc2c1` [Compound 33, (R)-N-((S)-2,3-dihydroxypropyl)-4-((7-methoxyquinolin-4-yl)oxy)benzenesulfonimidamide]: the pIC50 was 7.00 to 8.00.
In the case of `COc1ccc2c(Oc3ccc([S@@](=N)(=O)NC[C@H](O)CO)cc3)ccnc2c1` [Compound 34, (S)-N-((S)-2,3-dihydroxypropyl)-4-((7-methoxyquinolin-4-yl)oxy)benzenesulfonimidamide] it was more than 8.00.
In the case of `COc1ccc2c(Nc3ccc([S@](=N)(=O)N[C@H](C)CO)cc3)ccnc2c1` [Compound 35, (R)-N-((R)-1-hydroxypropan-2-yl)-4-((7-methoxyquinolin-4-yl)amino)benzenesulfonimidamide] it was more than 8.00; in that of `COc1ccc2c(Nc3ccc([S@@](=N)(=O)N[C@H](C)CO)cc3)ccnc2c1` [Compound 36, (S)-N-((R)-1-hydroxypropan-2-yl)-4-((7-methoxyquinolin-4-yl)amino)benzenesulfonimidamide], more than 8.00.

In general, pIC50 refers to −log10 of the IC50, conventionally taken in molar units.
